Reference: PMC11438102, “Modulation of cannabinoid receptor 2 alters neuroinflammation and reduces formation of alpha-synuclein aggregates in a rat model of nigral synucleinopathy” (Journal of Neuroinflammation, 2024)

Test system: RAW264.7 macrophages
Assay: Phagocytosis assay with pHrodo green E. coli bioparticles
Assay type: cell-based
Conditions: additional incubation, regardless of LPS dose
Description: The RAW264.7 macrophage cells (ATCC Cat# TIB-71, RRID: CVCL_0493) were grown in sterile media which consisted of DMEM high glucose, 10% FBS, 2mM L-glutamine, 1x Pen-strep and 1x sodium pyruvate in a humidified 5% CO2 incubator at 37°C. RAW264.7 were maintained in […] tissue culture flasks and plated at a density of 1 × 10^4 cells in triplicate in 96-well plates for assays. Cells were stimulated with either lipopolysaccharide (LPS O111:B4; Sigma Cat#L2630) at 100ng/mL or 1000ng/mL (750EU/mL or 7500 EU/mL, respectively). One hour prior to this stimulation the cells were pre-treated with the CB2 inverse agonist SMM-189 at 3μM or 7 μm or its vehicle. Specifically for cell culture experiments, SMM-189 was formulated with 40% ethanol (v/v), 20% tween-20 (v/v) and 40% saline (v/v). A phagocytosis assay was conducted 24 h after LPS.
The phagocytosis assay was performed using pHrodo green E. coli bioparticles (Invitrogen Cat# P35366) according to the manufacturer’s instructions. Five images per well were then collected every 30 min for 24 h on an EVOS M7000 microscope (Invitrogen, ThermoFisher Scientific). The cells were maintained for this duration using an on-stage incubator kept at 37°C and 5% CO2. Analysis of the collected images was performed using EVOS Celleste software (version 5.0), which counted the cells and then measured the integrated optical density of fluorescence within each well over the 24-hour time course. Analysis was conducted on the average integrated optical density across triplicate wells. Results were consistent across duplicate experimental replicates.

## C=C1[C@@H](C)[C@H]2[C@H](Cc3ccccc3)NC(=O)[C@]23[C@H](OC(C)=O)/C=C/[C@@](C)(O)C(=O)[C@@H](C)C/C=C/[C@H]3[C@@H]1O [cytochalasin D, reference compound]
  GFP expression (phagocytosis control): significantly restricted
